Molecular target: T1, AHR (UniProt P35869)
T1 construct: IC50
T1 sequence (P35869 1-848): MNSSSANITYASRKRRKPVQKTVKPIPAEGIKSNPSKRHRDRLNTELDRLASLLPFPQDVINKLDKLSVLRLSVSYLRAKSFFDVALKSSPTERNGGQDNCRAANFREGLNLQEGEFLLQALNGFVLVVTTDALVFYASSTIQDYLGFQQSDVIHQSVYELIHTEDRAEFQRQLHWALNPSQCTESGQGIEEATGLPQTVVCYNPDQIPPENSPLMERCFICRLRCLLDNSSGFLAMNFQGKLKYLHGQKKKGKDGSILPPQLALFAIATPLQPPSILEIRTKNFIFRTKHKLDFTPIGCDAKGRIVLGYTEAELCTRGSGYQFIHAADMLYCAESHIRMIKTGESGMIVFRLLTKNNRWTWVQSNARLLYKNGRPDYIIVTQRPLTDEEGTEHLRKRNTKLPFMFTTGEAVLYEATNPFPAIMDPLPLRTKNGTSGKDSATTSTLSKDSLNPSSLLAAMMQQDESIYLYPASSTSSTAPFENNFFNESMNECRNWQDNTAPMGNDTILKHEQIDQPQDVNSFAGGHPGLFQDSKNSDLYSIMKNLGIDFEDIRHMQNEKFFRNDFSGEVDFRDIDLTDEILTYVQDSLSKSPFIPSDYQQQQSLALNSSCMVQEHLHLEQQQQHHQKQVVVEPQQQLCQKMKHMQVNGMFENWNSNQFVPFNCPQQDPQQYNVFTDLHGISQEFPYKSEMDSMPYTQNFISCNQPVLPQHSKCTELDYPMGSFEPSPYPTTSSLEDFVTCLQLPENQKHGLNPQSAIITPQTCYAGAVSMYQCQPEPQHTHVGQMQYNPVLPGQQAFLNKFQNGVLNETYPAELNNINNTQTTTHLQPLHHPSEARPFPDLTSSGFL
Experiment: DRE-Luciferase Reporter Assay (Alternate Method) (Example 1B)
Assay type: cell-based, murine or human
Conditions: cell line and AHR activating ligand not specified

IC50 | Compound
> 1500 nM | CC(C)c1cnn2c(N[C@H]3CCc4nc(N)sc4C3)nc(-c3cncc(F)c3)nc12 [I-128a, (6S)—N6-[2-(5-Fluoro-3-pyridyl)-8-isopropyl-pyrazolo[1,5-a][1,3,5]triazin-4-yl]-4,5,6,7-tetrahydro-1,3-benzothiazole-2,6-diamine]
> 1500 nM | CC(C)c1cnn2c(N[C@@H]3CCc4nc(N)sc4C3)nc(-c3cncc(F)c3)nc12 [I-128b, (6R)—N6-[2-(5-Fluoro-3-pyridyl)-8-isopropyl-pyrazolo[1,5-a][1,3,5]triazin-4-yl]-4,5,6,7-tetrahydro-1,3-benzothiazole-2,6-diamine]
< 500 nM | CC(C)(C)c1cnn2c(NCCc3c[nH]c4ccccc34)nc(-c3cncc(F)c3)nc12 [I-131, N-(2-(1H-Indol-3-yl)ethyl)-8-(tert-butyl)-2-(5-fluoropyridin-3-yl)pyrazolo[1,5-a][1,3,5]triazin-4-amine]
500 to 1000 nM | CC(C)(C)c1cnn2c(N[C@@H]3CCc4[nH]c5ccccc5c4C3)nc(-c3cncc(F)c3)nc12 [I-132, (R)—N-(8-(tert-Butyl)-2-(5-fluoropyridin-3-yl)pyrazolo[1,5-a][1,3,5]triazin-4-yl)-2,3,4,9-tetrahydro-1H-carbazol-3-amine]
< 500 nM | OCc1cnn2c(NCCc3c[nH]c4c(O)cccc34)cc(-c3cncc(F)c3)nc12 [I-133, 3-[2-[[5-(5-fluoro-3-pyridyl)-3-(hydroxymethyl)pyrazolo[1,5-a]pyrimidin-7-yl]amino]ethyl]-1H-indol-7-ol]
> 1500 nM | CC(C)Oc1cc(-c2cncc(F)c2)nc(N[C@@H]2CCc3[nH]c4ccccc4c3C2)n1 [I-134]
< 500 nM | CC(C)Oc1nc(N[C@@H]2CCc3[nH]c4ccccc4c3C2)nc(-c2cncc(F)c2)n1 [I-135, (3R)—N-[4-(5-Fluoro-3-pyridyl)-6-isopropoxy-1,3,5-triazin-2-yl]-2,3,4,9-tetrahydro-1H-carbazol-3-amine]
< 500 nM | CC(C)Oc1nc(NCCc2c[nH]c3ccccc23)nc(-c2cncc(F)c2)n1 [I-136, 4-(5-Fluoro-3-pyridyl)-N-[2-(1H-indol-3-yl)ethyl]-6-isopropoxy-1,3,5-triazin-2-amine]
< 500 nM | CC(C)c1cnn2c(N[C@H]3CCc4[nH]c5c(F)cc(F)cc5c4C3)nc(-c3cncc(F)c3)nc12 [I-139a, (3S)-6,8-difluoro-N-[2-(5-fluoro-3-pyridyl)-8-isopropyl-pyrazolo[1,5-a][1,3,5]triazin-4-yl]-2,3,4,9-tetrahydro-1H-carbazol-3-amine]
< 500 nM | CC(C)c1cnn2c(N[C@@H]3CCc4[nH]c5c(F)cc(F)cc5c4C3)nc(-c3cncc(F)c3)nc12 [I-139b, (3R)-6,8-difluoro-N-[2-(5-fluoro-3-pyridyl)-8-isopropyl-pyrazolo[1,5-a][1,3,5]triazin-4-yl]-2,3,4,9-tetrahydro-1H-carbazol-3-amine]
< 500 nM | Fc1cncc(-c2nc(NCCc3c[nH]c4ccccc34)n3ncc(Br)c3n2)c1 [I-141, 8-bromo-2-(5-fluoro-3-pyridyl)-N-[2-(1H-indol-3-yl)ethyl]pyrazolo[1,5-a][1,3,5]triazin-4-amine]
> 1500 nM | O=C(O)c1cnn2c(NCCc3c[nH]c4c(O)cccc34)cc(-c3cncc(F)c3)nc12 [I-142]
> 1500 nM | OCc1cnn2c(NCCc3c[nH]c4ccc(O)cc34)cc(-c3cncc(F)c3)nc12 [I-143, 3-[2-[[5-(5-fluoro-3-pyridyl)-3-(hydroxymethyl)pyrazolo[1,5-a]pyrimidin-7-yl]amino]ethyl]-1H-indol-5-ol]
1000 to 1500 nM | OCc1cnn2c(NC[C@@H](O)c3c[nH]c4ccccc34)cc(-c3cncc(F)c3)nc12 [I-144a, (1S)-2-[[5-(5-fluoro-3-pyridyl)-3-(hydroxymethyl)pyrazolo[1,5-a]pyrimidin-7-yl]amino]-1-(1H-indol-3-yl)ethanol]
> 1500 nM | CC(C)c1cnn2c(N[C@H]3CCc4c([nH]c5ccccc45)C3)nc(-c3cncc(F)c3)nc12 [I-146a]
> 1500 nM | CC(C)c1cnn2c(N[C@@H]3CCc4c([nH]c5ccccc45)C3)nc(-c3cncc(F)c3)nc12 [I-146b]
> 1500 nM | Fc1cncc(-c2nccc(NCCc3c[nH]c4ccccc34)n2)c1 [I-148]
> 1500 nM | Cc1cnn2c(NCCc3c[nH]c4c(O)cc(O)cc34)cc(-c3cncc(F)c3)nc12 [I-149]
< 500 nM | Cc1cnn2c(NC[C@H](O)c3c[nH]c4ccccc34)cc(-c3cncc(F)c3)nc12 [I-150a, (1R)-2-[[5-(5-Fluoro-3-pyridyl)-3-methyl-pyrazolo[1,5-a]pyrimidin-7-yl]amino]-1-(1H-indol-3-yl)ethanol]
1000 to 1500 nM | Cc1cnn2c(NC[C@@H](O)c3c[nH]c4ccccc34)cc(-c3cncc(F)c3)nc12 [I-150b, (1S)-2-[[5-(5-Fluoro-3-pyridyl)-3-methyl-pyrazolo[1,5-a]pyrimidin-7-yl]amino]-1-(1H-indol-3-yl)ethanol]
500 to 1000 nM | CC(C)Oc1cc(-c2ccccc2)nc(NCCc2c[nH]c3ccccc23)n1 [I-155, N-(2-(1H-Indol-3-yl)ethyl)-4-isopropoxy-6-phenylpyrimidin-2-amine]
> 1500 nM | Cc1c(-c2cncc(F)c2)nc2c(C)cnn2c1N[C@@H]1CCc2[nH]c3ccccc3c2C1 [I-157]

IC50 | Compound
> 1500 nM | O=C(O)c1cnn2c(NC[C@H](O)c3c[nH]c4ccccc34)cc(-c3cncc(F)c3)nc12 [I-158a]
> 1500 nM | O=C(O)c1cnn2c(NC[C@@H](O)c3c[nH]c4ccccc34)cc(-c3cncc(F)c3)nc12 [I-158b]
> 1500 nM | Cc1cnn2c(NC[C@@H](C)c3c[nH]c4ccccc34)cc(-c3cncc(F)c3)nc12 [I-160a, 5-(5-Fluoro-3-pyridyl)-N-[(2S)-2-(1H-indol-3-yl)propyl]-3-methyl-pyrazolo[1,5-a]pyrimidin-7-amine]
> 1500 nM | Cc1cnn2c(NC[C@H](C)c3c[nH]c4ccccc34)cc(-c3cncc(F)c3)nc12 [I-160b, 5-(5-Fluoro-3-pyridyl)-N-[(2R)-2-(1H-indol-3-yl)propyl]-3-methyl-pyrazolo[1,5-a]pyrimidin-7-amine]
< 500 nM | Cc1cnn2c(NCC(=O)c3c[nH]c4ccccc34)cc(-c3cncc(F)c3)nc12 [I-163, 2-[[5-(5-Fluoro-3-pyridyl)-3-methyl-pyrazolo[1,5-a]pyrimidin-7-yl]amino]-1-(1H-indol-3-yl)ethanone]
> 1500 nM | Cc1cnn2c(NCC3(c4c[nH]c5ccccc45)CC3)cc(-c3cncc(F)c3)nc12 [I-167]
> 1500 nM | O=C(O)c1cnn2c(NCCc3c[nH]c4ccc(O)cc34)cc(-c3cncc(F)c3)nc12 [I-168]
500 to 1000 nM | Cc1c(-c2cncc(F)c2)nc2c(C)cnn2c1NCCc1c[nH]c2ccccc12 [I-169, 5-(5-Fluoro-3-pyridyl)-N-[2-(1H-indol-3-yl)ethyl]-3,6-dimethyl-pyrazolo[1,5-a]pyrimidin-7-amine]
> 1500 nM | Cc1cnn2c(NCC(C)(C)c3c[nH]c4ccccc34)cc(-c3cncc(F)c3)nc12 [I-170]
1000 to 1500 nM | Cc1cnn2c(NCC(C)c3c[nH]c4ccccc34)cc(-c3cncc(F)c3)nc12 (stereo not shown) [I-171, 5-(5-Fluoro-3-pyridyl)-N-[2-(1H-indol-3-yl)propyl]-3-methyl-pyrazolo[1,5-a]pyrimidin-7-amine]
1000 to 1500 nM | Cc1cnn2c(NCCc3c[nH]c4c(O)cccc34)cc(-c3cncc(F)c3)nc12 [I-172, 3-[2-[[5-(5-Fluoro-3-pyridyl)-3-methyl-pyrazolo[1,5-a]pyrimidin-7-yl]amino]ethyl]-1H-indol-7-ol]
> 1500 nM | Cc1cnn2c(NCCc3cn[nH]c3)cc(-c3cncc(F)c3)nc12 [I-173]
> 1500 nM | Cc1cnn2c(N[C@H](Cc3c[nH]c4ccccc34)CN(C)C)cc(-c3cncc(F)c3)nc12 [I-174]
> 1500 nM | CN(C)c1cnn2c(N[C@@H]3CCc4[nH]c5ccccc5c4C3)cc(-c3cncc(F)c3)nc12 [I-175, 5-(5-Fluoro-3-pyridyl)-N3,N3-dimethyl-N7-[(3R)-2,3,4,9-tetrahydro-1H-carbazol-3-yl]pyrazolo[1,5-a]pyrimidine-3,7-diamine]
> 1500 nM | Cc1cnn2c(NC(Cc3c[nH]c4ccccc34)CN(C)C)cc(-c3cncc(F)c3)nc12 (stereo not shown) [I-176]
> 1500 nM | Cc1cnn2c(NC(CO)Cc3c[nH]c4ccccc34)cc(-c3cncc(F)c3)nc12 (stereo not shown) [I-178]
< 500 nM | COc1cccc2c(CCNc3cc(-c4cncc(F)c4)nc4c(C)cnn34)c[nH]c12 [I-179, 5-(5-Fluoro-3-pyridyl)-N-[2-(7-methoxy-1H-indol-3-yl)ethyl]-3-methyl-pyrazolo[1,5-a]pyrimidin-7-amine]
500 to 1000 nM | Cc1cnn2c(NCCc3cc[nH]n3)cc(-c3cncc(F)c3)nc12 [I-180, 5-(5-Fluoro-3-pyridyl)-3-methyl-N-[2-(1H-pyrazol-3-yl)ethyl]pyrazolo[1,5-a]pyrimidin-7-amine]
> 1500 nM | CC(C)c1cnn2c(NC3CC3c3ccc(O)cc3)cc(-c3cncc(F)c3)nc12 (stereo not shown) [I-181]
> 1500 nM | CNC(=O)C(Cc1c[nH]c2ccccc12)Nc1cc(-c2cncc(F)c2)nc2c(C)cnn12 (stereo not shown) [I-182]
> 1500 nM | O=C(O)c1cnn2c(NCCc3c[nH]c4ccccc34)cc(-c3cncc(F)c3)nc12 [I-183]

— patent US11358969B2, “Indole AHR inhibitors and uses thereof” (Ikena Oncology, Inc., priority 2017, dated 2022)
